Starred links: 1 amine or outer side, 2 acyl side, 3 side chain; linkers in the order of their positions; H or OH if unused. Positions of bridges follow the written chain, without caps; N, C: chain ends. Non-standard residues stand in square brackets, D forms with d. Residues, ends and D or L forms follow the SMILES beside them. Chains are numbered I, II in the order given. X5 = O=C(CCCC(=O)NCCOCCOCCOCCOCCOCCOCCOCCOCCOCCOCCn1cc(CCC(=O)[*:2])nn1)NCCOCCOCCOCCOCCOCCOCCOCCOCCOCCOCCn1cc(CCC(=O)[*:1])nn1; TATA = O=C(CC[*:1])N1CN(C(=O)CC[*:2])CN(C(=O)CC[*:3])C1; X1 = O=C(C[*:1])N1CCN(C(=O)C[*:2])CCN(C(=O)C[*:3])CC1; 1Nal = N[C@@H](Cc1cccc2ccccc12)C(=O)O
Experiments:
human P-Selectin protein = molecular target: T1, human P-Selectin protein (Homo sapiens, UniProt P16109); experiment: SPR binding assay (Biacore); conditions: recombinant biotinylated human P-Selectin, 25° C.; read-out: Affinity KD determined by SPR
T1 sequence (P16109 42-830): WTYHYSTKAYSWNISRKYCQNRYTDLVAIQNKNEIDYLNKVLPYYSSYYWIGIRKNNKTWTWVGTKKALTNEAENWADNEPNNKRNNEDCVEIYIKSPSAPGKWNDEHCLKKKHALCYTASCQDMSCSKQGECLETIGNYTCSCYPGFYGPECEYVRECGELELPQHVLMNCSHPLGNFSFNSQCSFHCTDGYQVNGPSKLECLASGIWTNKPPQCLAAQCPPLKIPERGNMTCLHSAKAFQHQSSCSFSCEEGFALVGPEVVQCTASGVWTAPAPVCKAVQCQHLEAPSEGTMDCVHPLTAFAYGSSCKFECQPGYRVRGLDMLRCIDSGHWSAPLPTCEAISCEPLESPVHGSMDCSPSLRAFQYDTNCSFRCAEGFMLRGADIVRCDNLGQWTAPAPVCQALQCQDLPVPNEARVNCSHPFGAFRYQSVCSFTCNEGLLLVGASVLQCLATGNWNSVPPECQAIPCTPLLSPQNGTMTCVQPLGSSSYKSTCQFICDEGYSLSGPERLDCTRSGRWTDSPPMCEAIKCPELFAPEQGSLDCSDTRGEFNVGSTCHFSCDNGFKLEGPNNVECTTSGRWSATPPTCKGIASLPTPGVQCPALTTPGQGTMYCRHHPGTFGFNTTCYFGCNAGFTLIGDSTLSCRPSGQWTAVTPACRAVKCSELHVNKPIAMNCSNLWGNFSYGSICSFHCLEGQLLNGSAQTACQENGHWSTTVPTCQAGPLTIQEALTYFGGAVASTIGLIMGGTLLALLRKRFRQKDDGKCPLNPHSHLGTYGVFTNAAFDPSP
Protocol: Biacore experiments were performed to determine ka (M−1s−1), kd (s−1), KD (nM) values of monomeric peptides binding to human Selectin proteins. Recombinant biotinylated human P-Selectin protein was used. For analysis of binding, either a Biacore 3000 or 5200 instrument was used with a CMS sensor chip (GE Healthcare). For sensor chip surface preparation, streptavidin was immobilized on the chip using standard amine-coupling chemistry at 25° C. with HBS-N (10 mM HEPES, 0.15 M NaCl, pH 7.4) as the running buffer. The carboxymethyl dextran surface was activated with a 12 min injection of a 1:1 ratio of 0.4 M 1-ethyl-3-(3-dim ethyl aminopropyl) carbodiimide hydrochloride (EDC)/0.1 M N-hydroxy succinimide (NHS) at a flow rate of 10 μl/min. For capture of streptavidin, protein was diluted to 0.2 mg/ml in 10 mM sodium acetate (pH 4.5) and captured by injecting 70 μl onto the activated chip surface. Residual activated groups were blocked with a 7 min injection of 1 M ethanolamine (pH 8.5). Biotinylated protein stock was diluted 1:100 in HBS-N and captured on one flow cell at 5 μl/min to a level of 1000-1500 RU. Buffer was changed to PBS/0.05% Tween 20 and a dilution series of the peptides was prepared in this buffer with a final DMSO concentration of 0.5%. The top concentration of the analyte varied from 200 nM to 50 μM; depending on predicted affinity of the interaction. In all cases a titration was performed with either seven 2-fold dilutions or five 3-fold dilutions. The SPR analysis was run at 25° C. with a flow rate of 50-80 μl/min with 60 seconds association and a suitable disassociation period (100-900 seconds). Data were corrected for DMSO excluded volume effects. All data were double-referenced for blank injections and reference surface using standard processing procedures and data processing and kinetic fitting were performed using Scrubber software, version 2.0c (BioLogic Software). Data were fitted using mass transport model allowing for mass transport effects where appropriate.

[1] = molecular target: T2, P-Selectin:PSGL1 interaction (Homo sapiens, UniProt P16109); experiment: Receptor ligand inhibition assay (P-Selectin binding to HL-60 cells); assay type: cell-based; conditions: geomean of n=3; for IC50: 5 nM P-Selectin, HL-60 cells, read-out: IC50; for Inhibition at top concentration: 100−% response at top concentration
T2 construct: host or cells: HL-60 cells (ATCC, CCL-240) supply the PSGL-1 partner endogenously
T2 sequence (P16109 42-771 limits assumed): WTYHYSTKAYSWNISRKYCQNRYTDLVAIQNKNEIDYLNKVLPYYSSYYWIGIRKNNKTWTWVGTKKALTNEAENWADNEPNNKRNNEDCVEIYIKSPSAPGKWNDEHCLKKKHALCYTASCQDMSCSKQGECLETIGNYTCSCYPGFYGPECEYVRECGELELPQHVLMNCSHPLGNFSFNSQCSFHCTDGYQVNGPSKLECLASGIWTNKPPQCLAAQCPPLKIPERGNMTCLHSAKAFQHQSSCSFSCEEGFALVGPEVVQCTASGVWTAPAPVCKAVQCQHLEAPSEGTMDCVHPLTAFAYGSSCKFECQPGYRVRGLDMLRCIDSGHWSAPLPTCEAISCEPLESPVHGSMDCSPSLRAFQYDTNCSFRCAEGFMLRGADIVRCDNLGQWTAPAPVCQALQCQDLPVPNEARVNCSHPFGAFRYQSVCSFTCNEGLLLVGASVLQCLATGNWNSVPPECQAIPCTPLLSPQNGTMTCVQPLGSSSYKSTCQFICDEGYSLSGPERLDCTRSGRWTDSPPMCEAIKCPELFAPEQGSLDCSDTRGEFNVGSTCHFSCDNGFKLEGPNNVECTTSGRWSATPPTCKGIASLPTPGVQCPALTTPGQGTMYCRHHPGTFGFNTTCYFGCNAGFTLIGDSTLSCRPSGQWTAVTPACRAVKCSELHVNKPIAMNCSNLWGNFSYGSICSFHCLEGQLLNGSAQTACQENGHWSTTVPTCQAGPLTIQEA
Protocol: Bicycle test samples, SelG1 (Crizanlizumab) were serially diluted maintaining 0.5% DMSO in assay buffer (25 mM HEPES, 121 mM NaCl, 5.4 mM KCl, 0.8 mM MgCl2, 1.8 mM CaCl2), 6 mM […], 5.5 mM glucose, 1% BSA, pH7.4) and transferred to 384 well clear bottom plates (Corning, 3712) with a final volume of 6 μL. […], of P-Selectin in imaging buffer (25 mM HEPES, 121 mM NaCl, 5.4 mM KCl, 0.8 mM MgCl2, 1.8 mM CaCl2), 6 mM […], 5.5 mM glucose, pH7.4) was added to give a 5 nM final concentration and incubated at room temperature for 15 minutes. HL-60 cells (ATCC, CCL-240) mixed with 1 μg/mL far red labelled wheat germ agglutinin (WGA, ThermoFisher W21404) and 1 μg/mL AlexaFluor 488-streptavidin (Invitrogen S11223) were added to the plate and incubated for 2 hours at room temperature in the absence of light. Staining and antibody binding were quantified by simultaneously scanning the microplates with 488 nm and 640 nm lasers on a mirrorball microplate cytometer, AF488 on FL2 triggering on AF647-WGA on FL4. Data was analysed in Dotmatics, using a four parameter logistic fit to generate IC50 values and % response. Percent inhibition was calculated using 100−% response at top concentration.

How did the Kd (human P-Selectin protein) turn out when `CSCC[C@@H]1NC(=O)[C@H](Cc2ccc(O)cc2)NC(=O)[C@@H](NC(=O)[C@H](C)NC(=O)CCc2cn(CCOCCOCCOCCOCCOCCOCCOCCOCCOCCOCCNC(=O)CCCC(=O)NCCOCCOCCOCCOCCOCCOCCOCCOCCOCCOCCn3cc(CCC(=O)N[C@@H](C)C(=O)N[C@H]4CSCCC(=O)N5CN6CN(C5)C(=O)CCSC[C@H](NC(=O)[C@H](Cc5c[nH]c7ccccc57)NC(=O)[C@H](CCC(=O)O)NC(=O)[C@H](CCSC)NC(=O)[C@H](Cc5ccc(O)cc5)NC4=O)C(=O)N[C@@H](CC(=O)O)C(=O)N[C@@H](C(C)C)C(=O)N[C@@H]([C@@H](C)O)C(=O)N[C@@H](CC(=O)O)C(=O)N[C@@H](Cc4ccc(O)cc4)C(=O)NCC(=O)N[C@H](C(=O)N[C@@H](C)C(N)=O)CSCCC6=O)nn3)nn2)CSCCC(=O)N2CN3CN(C2)C(=O)CCSC[C@H](NC(=O)[C@H](Cc2c[nH]c4ccccc24)NC(=O)[C@H](CCC(=O)O)NC1=O)C(=O)N[C@@H](CC(=O)O)C(=O)N[C@@H](C(C)C)C(=O)N[C@@H]([C@@H](C)O)C(=O)N[C@@H](CC(=O)O)C(=O)N[C@@H](Cc1ccc(O)cc1)C(=O)NCC(=O)N[C@H](C(=O)N[C@@H](C)C(N)=O)CSCCC3=O` [BCY5454] was run?
Its Kd is 0.4 µM.

For `CSCC[C@@H]1NC(=O)[C@H](Cc2ccc(O)cc2)NC(=O)[C@@H](NC(=O)[C@H](C)NC(C)=O)CSCCC(=O)N2CN3CN(C2)C(=O)CCSC[C@H](NC(=O)[C@H](Cc2c[nH]c4ccccc24)NC(=O)[C@H](CCC(=O)O)NC1=O)C(=O)N[C@@H](CC(=O)O)C(=O)N[C@@H](C(C)C)C(=O)N[C@@H]([C@@H](C)O)C(=O)N[C@@H](CC(=O)O)C(=O)N[C@@H](Cc1ccc(O)cc1)C(=O)NCC(=O)N[C@H](C(=O)N[C@@H](CCCCNC(=O)CCc1cn(CCOCCOCCOCCOCCOCCOCCOCCOCCOCCOCCNC(=O)CCCC(=O)NCCOCCOCCOCCOCCOCCOCCOCCOCCOCCOCCn2cc(CCC(=O)NCCCC[C@H](NC(=O)[C@@H]4CSCCC(=O)N5CN6CN(C5)C(=O)CCSC[C@H](NC(=O)[C@H](Cc5c[nH]c7ccccc57)NC(=O)[C@H](CCC(=O)O)NC(=O)[C@H](CCSC)NC(=O)[C@H](Cc5ccc(O)cc5)NC(=O)[C@@H](NC(=O)[C@H](C)NC(C)=O)CSCCC6=O)C(=O)N[C@@H](CC(=O)O)C(=O)N[C@@H](C(C)C)C(=O)N[C@@H]([C@@H](C)O)C(=O)N[C@@H](CC(=O)O)C(=O)N[C@@H](Cc5ccc(O)cc5)C(=O)NCC(=O)N4)C(N)=O)nn2)nn1)C(N)=O)CSCCC3=O` [BCY5456] (I: Ac-ACYMEWCDVTDYGCK-NH2 / II: Ac-ACYMEWCDVTDYGCK-NH2; linker I:2-I:7-I:14, II:2-II:7-II:14 via TATA; linker I:15-II:15 via X5), which Kd (human P-Selectin protein) is on record?
The Kd was 0.5 µM.

`CSCC[C@@H]1NC(=O)[C@H](Cc2ccc(O)cc2)NC(=O)[C@@H](NC(C)=O)CSCCC(=O)N2CN3CN(C2)C(=O)CCSC[C@H](NC(=O)[C@H](Cc2c[nH]c4ccccc24)NC(=O)[C@H](CCC(=O)O)NC1=O)C(=O)N[C@@H](CC(=O)O)C(=O)N[C@@H](C(C)C)C(=O)N[C@@H]([C@@H](C)O)C(=O)N[C@@H](CC(=O)O)C(=O)N[C@@H](Cc1ccc(O)cc1)C(=O)NCC(=O)N[C@H](C(N)=O)CSCCC3=O` [BCY9717, Ac-(SEQ ID NO: 6)] (Ac-CYMEWCDVTDYGC-NH2; linker 1-6-13 via TATA; C-terminus assumed) was tested. Which IC50 [1] did it give?
Its IC50 is greater than 10.9 µM.

And the “Inhibition at top concentration” value [1]?
Its value is 20%.

Which results are given for `CSCC[C@@H]1NC(=O)[C@H](Cc2ccc(O)cc2)NC(=O)[C@@H](NC(=O)[C@H](C)NC(C)=O)CSCCC(=O)N2CN3CN(C2)C(=O)CCSC[C@H](NC(=O)[C@H](Cc2cccc4ccccc24)NC(=O)[C@H](CCC(=O)O)NC1=O)C(=O)N[C@@H](CC(=O)O)C(=O)N[C@@H](C(C)C)C(=O)N[C@@H]([C@@H](C)O)C(=O)N[C@@H](CC(=O)O)C(=O)N[C@@H](Cc1ccc(O)cc1)C(=O)NCC(=O)N[C@H](C(=O)N[C@@H](C)C(N)=O)CSCCC3=O` [BCY11279, Ac-A-(SEQ ID NO: 4)-A] (Ac-ACYME[1Nal]CDVTDYGCA-NH2; linker 2-7-14 via TATA)?
IC50 [1]: > 3.54 µM; Inhibition at top concentration [1]: 24%

How did the IC50 [1] turn out when `CC(C)C[C@@H]1NC(=O)[C@H](CO)NC(=O)[C@@H]2CCCN2C(=O)[C@H](C(C)C)NC(=O)[C@H](CC(=O)O)NC(=O)[C@@H]2CSCC(=O)N3CCN(CCN(CC3)C(=O)CSC[C@@H](C(=O)N[C@@H](C)C(N)=O)NC(=O)[C@@H]3CCCN3C1=O)C(=O)CSC[C@H](NC(=O)[C@H](C)N)C(=O)N[C@@H](CC(=O)O)C(=O)N[C@@H](C)C(=O)N[C@@H](CC(=O)O)C(=O)N[C@@H](Cc1c[nH]c3ccccc13)C(=O)N2` [BCY11648, A-(SEQ ID NO: 3)-A] (H-ACDADWCDVPSLPCA-NH2; linker 2-7-14 via X1; N-terminus and C-terminus assumed) was run?
Its IC50 is greater than 0.117 µM.

And the “Inhibition at top concentration” value [1]?
The value was 37%.
